Assays:
[1] = system: AVEFA; assay: Herbicidal post-emergence action 1a (greenhouse pots, visual rating); assay type: in vivo, Avena fatua; conditions: rated visually about 3 weeks after treatment, 100% = plants have died, 0% = like control plants
In short: (§1)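 Weeds and crops sown in sandy loam in greenhouse pots were sprayed post-emergence at the one-leaf stage (2–3 weeks after sowing) with WP or EC formulations plus 0.5% additive at 600 l/ha water, 320 and/or 80 g/ha. About 3 weeks later damage was rated visually against untreated controls (0% = no effect, 100% = dead).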

[2] = system: VERPE; assay: as above; assay type: in vivo, Veronica persica; conditions: visual rating about 3 weeks after treatment
In short: as §1

[3] = system: AMARE; assay: Herbicidal pre-emergence action 2a (greenhouse pots, visual scoring); assay type: in vivo, Amaranthus retroflexus; conditions: dosage 320 g/ha, visual scoring after about 3 weeks vs untreated controls
In short: (§2)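 Seeds were sown in pots, covered with soil, and the compound (WP or EC formulation) was sprayed onto the soil surface as an aqueous suspension or emulsion with 0.5% additive at 600 l/ha water, at 320 g/ha and/or 80 g/ha. Greenhouse growth followed for about 3 weeks, then visual scoring against untreated controls.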

[4] = system: SETVI; assay: as above; assay type: in vivo, Setaria viridis; conditions: dosage 320 g/ha, visual scoring after about 3 weeks vs untreated controls
In short: as §2

[5] = system: STEME; assay: Herbicidal post-emergence action 1b (twin sowing, 1280 g/ha); assay type: in vivo, Stellaria media; conditions: dosage 1280 g/ha, visual rating about 3 weeks after treatment
In short: (§3)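 Twin-sown mono- and dicot weeds in sandy loam were sprayed post-emergence at the one-leaf stage, 2–3 weeks after sowing, with WP or EC formulations in water plus 0.5% additive at 600 L/ha. After about 3 weeks in the greenhouse, activity was rated visually against untreated controls (0% = like control, 100% = plants dead).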

[6] = system: STEME; assay: Herbicidal pre-emergence action 2b (doubly sown, 1280 g/ha); assay type: in vivo, Stellaria media; conditions: doubly sown pots, dosage 1280 g/ha, visual scoring after about 3 weeks
In short: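 Weed seeds sown in sandy loam, two species per pot, covered with soil; compounds as WP or EC applied to soil surface as aqueous suspension/emulsion with 0.5% additive at 600 L/ha water. Greenhouse growth; visual % activity vs untreated controls after about 3 weeks (100% = dead, 0% = like control).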

[7] = system: harmful plants; assay: Herbicidal pre-emergence action 2a, summary across species; assay type: in vivo; conditions: Tables B1 to B15 (320 g/ha and/or 80 g/ha)
In short: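 Pre-emergence greenhouse test: WP or EC formulations sprayed onto soil covering sown weed and crop seeds, 600 l/ha water with 0.5% additive, at 320 g/ha and/or 80 g/ha. Damage scored visually after about 3 weeks as % versus untreated control (100% = plants dead).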

[8] = system: AMARE; assay: Herbicidal post-emergence action 1a (greenhouse pots, visual rating); assay type: in vivo, Amaranthus retroflexus; conditions: visual rating about 3 weeks after treatment
In short: as §1

[9] = system: POAAN; assay: Herbicidal post-emergence action 1b (twin sowing, 1280 g/ha); assay type: in vivo, Poa annua; conditions: dosage 1280 g/ha, visual rating about 3 weeks after treatment
In short: as §3

[10] = system: ECHCG; assay: Herbicidal post-emergence action 1a (greenhouse pots, visual rating); assay type: in vivo, Echinochloa crus-galli; conditions: rated visually about 3 weeks after treatment, 100% = plants have died, 0% = like control plants
In short: as §1

Row | Structure (SMILES) | Post-emergence action against AVEFA in % ([1]; Dosage 80 g/ha) [%] | Post-emergence action against AVEFA in % ([1]; Dosage 320 g/ha) [%] | Post-emergence action against VERPE in % ([2]; dosage 80 g/ha) [%] | Post-emergence action against VERPE in % ([2]; dosage 320 g/ha) [%] | Pre-emergence action against AMARE in % [3] [%] | Pre-emergence action against SETVI in % [4] [%] | Post-emergence action at 1280 g/ha against STEME in % [5] [%] | Pre-emergence action at 1280 g/ha against STEME in % [6] [%] | herbicidal efficacy against harmful plants in the case of pre-emergence treatment (in words) [7] | Post-emergence action against AMARE in % ([8]; dosage 80 g/ha) [%] | Post-emergence action against AMARE in % ([8]; dosage 320 g/ha) [%] | Post-emergence action at 1280 g/ha against POAAN in % [9] [%] | Post-emergence action against ECHCG in % ([10]; Dosage 320 g/ha) [%] | Post-emergence action against ECHCG in % ([10]; Dosage 80 g/ha) [%]
1 | COC(=O)C(C)Oc1nn(-c2cnccn2)c(-c2ccc(F)c(F)c2)c1C#N (racemic) [Example I-22] | 100 | 100 | 80 | 90 | 90 | 100 | 100 | 100 | good herbicidal efficacy | 90 | 90 | 100 |  | 
2 | COC(=O)COc1nn(-c2cnccn2)c(-c2ccc(F)nc2)c1Br [Example I-11] |  |  | 90 | 90 | 90 | 100 | 90 | 100 | good herbicidal efficacy | 90 | 90 | 100 | 80 | 
3 | COC(=O)[C@@H](C)Oc1nn(-c2cnccn2)c(-c2cccc(F)c2)c1Br [Example I-20] | 90 | 90 | 80 | 90 | 100 | 100 | 100 | 100 | good herbicidal efficacy | 90 | 100 | 100 | 80 | 
4 | COC(=O)C(C)Oc1nn(-c2cnccn2)c(-c2ccnc(F)c2)c1Cl (racemic) [Example I-05] | 90 | 100 | 80 | 90 | 100 | 90 | 90 | 100 | good herbicidal efficacy |  | 80 | 100 |  | 
5 | COC(=O)[C@@H](C)Oc1nn(-c2cnccn2)c(-c2ccnc(F)c2)c1Br [Example I-34] |  | 90 |  | 80 | 90 | 100 | 100 | 100 | good herbicidal efficacy |  | 80 | 100 |  | 
6 | C[C@@H](Oc1nn(-c2cnccn2)c(-c2cccc(F)c2)c1Br)C(=O)O [Example I-48] | 80 |  |  |  | 100 | 100 | 100 | 100 | good herbicidal efficacy |  |  | 100 |  | 90
7 | COC(=O)[C@@H](C)Oc1nn(-c2cnccn2)c(-c2cncc(F)c2)c1Br [Example I-39] | 80 | 90 | 80 | 90 | 100 | 100 | 100 | 100 | good herbicidal efficacy |  | 80 | 100 | 90 | 80
8 | COC(=O)[C@@H](C)Oc1nn(-c2cnccn2)c(-c2ccc(F)c(F)c2)c1C#N [Example I-46] | 80 | 80 |  | 80 | 100 | 100 | 90 | 100 | good herbicidal efficacy | 80 | 80 | 100 |  | 
9 | COC(=O)C(C)Oc1nn(-c2cnccn2)c(-c2ccc(F)nc2)c1Br (racemic) [Example I-12] | 100 | 100 | 80 | 90 | 100 | 100 | 100 | 100 | good herbicidal efficacy | 80 | 80 | 100 | 80 | 
10 | CCOC(=O)COc1nn(-c2cnccn2)c(-c2ccc(F)nc2)c1Cl [Example I-53] |  |  | 80 |  | 100 | 100 | 100 | 100 | good herbicidal efficacy | 80 |  | 100 |  | 80
11 | C[C@H](Oc1nn(-c2cnccn2)c(-c2cncc(F)c2)c1Br)C(=O)O [Example I-37] | 90 | 90 | 80 | 90 | 90 | 100 | 100 | 100 | good herbicidal efficacy |  | 90 | 100 | 90 | 
12 | COC(=O)C(C)Oc1nn(-c2cnccn2)c(-c2ccc(F)c(F)c2)c1Br (racemic) [Example I-16] | 90 | 100 |  | 80 | 100 | 100 | 100 | 100 | good herbicidal efficacy |  | 90 | 100 | 90 | 
13 | COC(=O)[C@@H](C)Oc1nn(-c2cnccn2)c(-c2ccc(F)nc2)c1Cl [Example I-36] | 90 | 90 |  | 90 | 100 | 100 | 100 | 100 | good herbicidal efficacy | 90 | 90 | 100 |  | 

— patent US20230167088A1, “1-PYRAZINYLPYRAZOLYL-3-OXYALKYL ACIDS AND THEIR DERIVATIVES, AND THEIR USE FOR CONTROL OF UNDESIRED PLANT GROWTH” (BAYER AKTIENGESELLSCHAFT, priority 2020, published 2023)
